{
  "source": "patent US9902713B2",
  "about": "“Neuroprotective compounds and use thereof” (BOARD OF REGENTS OF THE UNIVERSITY OF TEXAS SYSTEM, priority 2013, dated 2018)",
  "key": {"[1]": {"system": "intracellular levels of NAD", "assay": "Intracellular NAD levels by mass spectrometry", "format": "cell-based", "settings": "3 uM, 12 hrs", "source_text": "Cultured cells were exposed to varying levels of “A20” (X-axis) for 12 hrs. Intracellular levels of NAD (Y-axis) were monitored by mass spectrometry."}, "[2]": {"system": "cerebral cortical neurons", "settings": "previously reported; cited from earlier work"}, "[3]": {"system": "newborn hippocampal neurons", "settings": "previously reported; cited from earlier work"}, "[4]": {"assay": "Metabolic stability in hepatocytes", "format": "in vitro ADME", "settings": "murine hepatocytes", "procedure": "The pharmacokinetic and toxicity profiles of P7C3-S243 were evaluated using both in vivo and in vitro methods. Having observed near complete metabolic stability in the presence of murine hepatocytes (T1/2>240 min), we monitored plasma and brain levels of the compound following IV, oral and IP dosing."}, "[5]": {"system": "newborn neurons", "assay": "Survival of BrdU-prelabeled newborn neurons (FIG. 4)", "format": "in vivo, mice", "settings": "BrdU bolus, then twice-daily IP 7 days", "procedure": "(§1) Adult mice were administered a bolus of BrdU (150 mg/kg) to label newborn neurons, and 24 hours later, twice-daily IP treatment was begun with vehicle or compound for 7 days. At the end of the 7 days, the number of surviving BrdU-labeled neurons was quantified. Importantly, under the conditions of this experiment, newborn neurons were labeled prior to exposure to drug, so any increase in number of neurons can be attributed to neuroprotective activity rather than proliferative effects. […] Data shown are mean+/−SEM. P values are shown for comparison to VEH treated group, and were obtained by one-way ANOVA with Dunnet's post-hoc test, using GraphPad Prism 5.0. Asterisks indicate p<0.01 (*) or p<0.0001 (***).\nas §1, with “Specifically, in FIG. 4, adult” for “Adult”, “Asterisks indicate p<0.01 (*) or p<0.0001 (***).” left out"}, "[6]": {"system": "hippocampal CA1 Schaffer-collateral pathway", "assay": "Hippocampal electrophysiology (LTP, PPF) after blast-mediated TBI", "format": "in vivo, mice", "procedure": "To test our hypothesis that performance in the Barnes maze was associated with hippocampal function, we investigated synaptic plasticity in the hippocampus. Specifically, we measured both long-term potentiation (LTP) and paired pulse facilitation (PPF) in brain slices derived from mice exposed to blast-injury as a function of treatment with different doses of P7C3-S243 for 9 days, initiated 24 hours after injury, in animals not subjected to behavioral testing. The stimulating electrode activated CA3 Schaeffer collateral axons, and the recording electrode was placed in the stratum radiatum of the CA1 region, where Schaffer collateral axons synapse with dendrites from CA1 pyramidal cells. […] Thus, dose-dependent protective efficacy of P7C3-S243 in behavioral tasks of learning and memory correlated with hippocampal function.\nElectrophysiology. Single-housed, naïve 7- to 9-week-old male C57BL/6J mice received intraperitoneal injections of P7C3-S243 (0.3, 3, or 30 mg/kg/day) or vehicle 24 h following a single sham- or blast-Injury. On the tenth day after injury, coronal hippocampal slices (400 μm) were prepared, in accordance with the University of Iowa guidelines. Briefly, hippocampal slices were cut using a Vibratome 1000 Plus (Vibratome, St. Louis, Mo.) in ice-cold slicing buffer (in mM: 127 NaCl, 26 NaHCO3, 1.2 KH2PO4, 1.9 KCl, 1.1 CaCl2, 2 MgSO4, 10 D-Glucose) bubbled with 95% 02 and 5% CO2. Slices were then transferred to a holding chamber containing oxygenated artificial cerebrospinal fluid (ACSF; in mM: 127 NaCl, 26 NaHCO3, 1.2 KH2PO4, 1.9 KCl, 2.2 CaCl2, 1 MgSO4, 10 D-Glucose) for 30 min at 34 C and for another 30 min at 22° C. for recovery, and then transferred to a submersion recording chamber continually perfused with 32° C. oxygenated ACSF (rate: 2 ml/min). Slices were equilibrated for at least 15 min before each recording.\nACSF-filled glass electrodes (resistance <1 MΩ) were positioned in the stratum radiatum of area CA1 for extracellular recording. Synaptic responses were evoked by stimulating Schaffer collaterals with 0.2 ms pulses once every 15 s. […] Experiments with maximal fEPSPs of less than 0.5 mV, with large fiber volleys, or with substantial changes in the fiber volley during recording were rejected. LTP was induced by 12TBS (12 bursts, each of 4 pulses at 100 Hz).\nField EPSPs were recorded (AxoClamp 900A amplifier, Axon Instruments, Foster City, Calif.), filtered at 1 kHz, digitized at 10 kHz (Axon Digidata 1440), and stored for off-line analysis (Clampfit 10). Initial slopes of fEPSPs were expressed as percentages of baseline averages. In summary graphs, each point represents the average of 4 consecutive responses. The time-matched, normalized data were averaged across experiments."}, "[7]": {"biological_target": "2B6 (Homo sapiens, UniProt P20813)", "sequence (P20813 whole entry)": "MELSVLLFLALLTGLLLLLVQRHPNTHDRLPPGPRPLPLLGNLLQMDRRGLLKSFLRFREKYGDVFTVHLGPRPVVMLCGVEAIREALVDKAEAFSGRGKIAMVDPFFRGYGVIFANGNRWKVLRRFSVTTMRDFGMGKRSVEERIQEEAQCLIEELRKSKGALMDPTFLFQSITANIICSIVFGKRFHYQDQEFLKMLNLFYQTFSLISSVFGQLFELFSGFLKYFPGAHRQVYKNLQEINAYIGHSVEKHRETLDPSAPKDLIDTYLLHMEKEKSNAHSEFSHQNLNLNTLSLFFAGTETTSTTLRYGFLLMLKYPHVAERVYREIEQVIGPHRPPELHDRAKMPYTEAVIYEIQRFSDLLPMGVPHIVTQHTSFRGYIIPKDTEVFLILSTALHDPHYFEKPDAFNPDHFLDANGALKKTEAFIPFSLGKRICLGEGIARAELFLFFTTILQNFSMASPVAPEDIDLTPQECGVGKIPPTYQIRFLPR", "assay": "Cytochrome P450 inhibition", "format": "in vitro ADME"}, "[8]": {"system": "HCC44", "assay": "Toxicity towards human cancer cell line", "format": "cell-based"}, "[9]": {"biological_target": "peripheral benzodiazepine receptor (translocator protein, TSPO) (Rattus norvegicus, UniProt P16257)", "assay": "Ligand displacement (Psychoactive Drug Screening Program)", "format": "binding"}, "[10]": {"biological_target": "μ-opioid receptor (Homo sapiens, UniProt P35372)", "sequence (P35372 whole entry, species assumed)": "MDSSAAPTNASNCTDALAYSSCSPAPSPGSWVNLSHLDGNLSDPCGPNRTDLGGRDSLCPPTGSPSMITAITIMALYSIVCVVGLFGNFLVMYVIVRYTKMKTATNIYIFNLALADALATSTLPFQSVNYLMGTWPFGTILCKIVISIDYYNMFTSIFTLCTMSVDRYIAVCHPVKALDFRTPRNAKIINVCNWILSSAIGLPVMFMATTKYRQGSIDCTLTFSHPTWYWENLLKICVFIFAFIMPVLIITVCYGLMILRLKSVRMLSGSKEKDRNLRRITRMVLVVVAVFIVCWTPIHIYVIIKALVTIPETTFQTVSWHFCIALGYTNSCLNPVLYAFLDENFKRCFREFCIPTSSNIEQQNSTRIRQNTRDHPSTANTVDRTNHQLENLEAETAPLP", "assay": "Ligand displacement (Psychoactive Drug Screening Program)", "format": "binding"}, "[11]": {"biological_target": "2C9 (Homo sapiens, UniProt P11712)", "sequence (P11712 whole entry)": "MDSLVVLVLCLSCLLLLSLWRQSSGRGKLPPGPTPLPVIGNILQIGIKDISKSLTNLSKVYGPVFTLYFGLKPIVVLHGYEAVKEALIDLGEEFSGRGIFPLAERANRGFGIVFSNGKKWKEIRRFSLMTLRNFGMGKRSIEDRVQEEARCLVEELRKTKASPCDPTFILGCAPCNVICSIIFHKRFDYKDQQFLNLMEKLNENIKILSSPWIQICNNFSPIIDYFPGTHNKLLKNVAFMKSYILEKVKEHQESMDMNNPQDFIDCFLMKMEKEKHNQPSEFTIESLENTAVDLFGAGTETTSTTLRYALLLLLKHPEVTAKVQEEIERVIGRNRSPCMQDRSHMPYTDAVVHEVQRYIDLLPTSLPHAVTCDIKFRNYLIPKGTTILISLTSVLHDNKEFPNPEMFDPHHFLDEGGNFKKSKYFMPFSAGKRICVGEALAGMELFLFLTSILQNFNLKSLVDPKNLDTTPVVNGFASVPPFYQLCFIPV", "assay": "Cytochrome P450 inhibition", "format": "in vitro ADME"}},
  "data": [
    {"smiles": "COc1cccc(NCC(F)Cn2c3ccc(Br)cc3c3cc(Br)ccc32)c1", "note": "(centres unmarked) [P7C3-A20, N-(3-(3,6-dibromo-9H-carbazol-9-yl)-2-fluoropropyl)-3-methoxyaniline]", "values": [
      {"measurement": "maximal enhancement of NAD", "setting": "[1]", "value": "20-30%"},
      {"measurement": "protection of cerebral cortical neurons", "setting": "[2]", "value": "protect rat cerebral cortical neurons"},
      {"measurement": "activity in the in vivo hippocampal neuroprotection assay (previous studies)", "setting": "[3]", "value": "substantially improved activity"}
    ]},
    {"smiles": "COc1cccc(NCC(F)Cn2c3ccc(Br)cc3c3cc(Br)ccc32)n1", "note": "(racemic) [P7C3-S243, N-(3-(3,6-dibromo-9H-carbazol-9-yl)-2-fluoropropyl)-6-methoxypyridin-2-amine]", "values": [
      {"measurement": "T1/2", "setting": "[4]", "value": "> 4", "unit": "h"},
      {"measurement": "protection down to (dose)", "setting": "[5]", "value": 1, "unit": "mg/kg/day"},
      {"measurement": "blast-induced LTP deficit", "setting": "[6]; 0.3 mg/kg/d from 24 hours after injury", "value": "not rescued"},
      {"measurement": "blast-induced deficits in LTP and PPF", "setting": "[6]; 0.3 mg/kg/day", "value": "had no effect"},
      {"measurement": "blast-induced PPF deficit, 50 ms inter-pulse interval", "setting": "[6]; 3 and 30 mg/kg/d", "value": "rescued"},
      {"measurement": "blast-induced LTP deficit", "setting": "[6]; 3 and 30 mg/kg/d from 24 hours after injury", "value": "rescued"}
    ]},
    {"smiles": "COc1cccc(NCC(F)Cn2c3ccc(Br)cc3c3cc(Br)ccc32)n1", "note": "(single isomer, unassigned; (-)) [(−)-P7C3-S243, (−)-N-(3-(3,6-dibromo-9H-carbazol-9-yl)-2-fluoropropyl)-6-methoxypyridin-2-amine]", "values": [
      {"measurement": "sensitivity of cytochrome P450", "setting": "[7]", "value": "insensitive"},
      {"measurement": "IC50", "setting": "[8]", "value": "> 10", "unit": "µM"},
      {"measurement": "IC50", "setting": "[9]", "value": 0.35, "unit": "µM"},
      {"measurement": "IC50", "setting": "[10]", "value": 8.2, "unit": "µM"},
      {"measurement": "sensitivity of cytochrome P450", "setting": "[11]", "value": "insensitive"}
    ]}
  ]
}
